According to ChEMBL document CHEMBL1201862, “PubChem BioAssay data set” (2004):
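96-well plates; 48 h exposure; 5 concentrations. Endpoints by linear interpolation between flanking doses. Not reached: highest tested concentration assigned. GI50 is the concentration that inhibits growth by half.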 The source made the active and inactive calls. No stated cut-off is given here; in the data, active = GI50 up to about 1.1 µM and inactive = higher.

Tests used:
Test in all cases: NCI tumour cell line growth inhibition, 48 h
LOX IMVI = system: LOX IMVI
IGROV-1 = system: IGROV-1
ACHN = system: ACHN
Hs-578T = system: Hs-578T
SNB-19 = system: SNB-19
MDA-MB-231 = system: MDA-MB-231
HCT-15 = system: HCT-15
CCRF-CEM = system: CCRF-CEM
U-251 = system: U-251
HOP-62 = system: HOP-62
OVCAR-5 = system: OVCAR-5
NCI-H522 = system: NCI-H522
COLO 205 = system: COLO 205
Malme-3M = system: Malme-3M
BT-549 = system: BT-549
MDA-N = system: MDA-N
SK-MEL-2 = system: SK-MEL-2
HL-60 = system: HL-60
HOP-92 = system: HOP-92
T47D = system: T47D

Measured: GI50

COC(=O)[C@@H](O)[C@]1(C(=O)OC)C2O[C@@H](OC)[C@@H]1CCCCCC[C@H]2O
> 100 µM: HCT-15
inactive: LOX IMVI > 100 µM | IGROV-1 > 100 µM | ACHN > 100 µM | Hs-578T > 100 µM | SNB-19 > 100 µM | MDA-MB-231 > 100 µM | CCRF-CEM > 100 µM | U-251 > 100 µM | HOP-62 > 100 µM | OVCAR-5 > 100 µM | NCI-H522 > 100 µM | COLO 205 > 100 µM | Malme-3M > 100 µM | BT-549 > 100 µM | MDA-N > 100 µM | SK-MEL-2 51.5 µM

CC(C)C(=O)OCC1CCCN2CCCCC12 (stereo not given)
53 µM: HCT-15
inactive: LOX IMVI 82 µM | ACHN > 100 µM | Hs-578T > 100 µM | SNB-19 > 100 µM | MDA-MB-231 45.4 µM | HL-60 39.8 µM | HOP-92 > 100 µM | CCRF-CEM 51.3 µM | U-251 > 100 µM | HOP-62 > 100 µM | OVCAR-5 > 100 µM | COLO 205 51.1 µM | Malme-3M > 100 µM | BT-549 21.5 µM | MDA-N > 100 µM | SK-MEL-2 > 100 µM

COC(=O)c1cc(OCc2cc(OCc3ccc(Br)cc3)cc(OCc3ccc(Br)cc3)c2)cc(OCc2cc(OCc3ccc(Br)cc3)cc(OCc3ccc(Br)cc3)c2)c1
> 100 µM: HCT-15
inactive: ACHN > 100 µM | SNB-19 > 100 µM | MDA-MB-231 > 100 µM | HOP-92 > 100 µM | U-251 > 100 µM | HOP-62 > 100 µM | OVCAR-5 > 100 µM | NCI-H522 > 100 µM | COLO 205 > 100 µM | Malme-3M > 100 µM | T47D > 100 µM | BT-549 > 100 µM | MDA-N > 100 µM | SK-MEL-2 > 100 µM

COc1ccccc1N/C(SCc1ccccc1)=C(/C(Cl)=C(Cl)Cl)[N+](=O)[O-]
20.7 µM: HCT-15
inactive: ACHN 32.1 µM | SNB-19 39.4 µM | MDA-MB-231 18.7 µM | CCRF-CEM 23.6 µM | U-251 21.1 µM | HOP-62 28.6 µM | OVCAR-5 33.3 µM | COLO 205 19.5 µM | Malme-3M 17.4 µM | T47D 26.1 µM | BT-549 15.1 µM | MDA-N 28.9 µM | SK-MEL-2 29.6 µM

COc1cc2c(cc1O)NC(=O)[C@@H]1C[C@@H](O)CN1C2=O
inactive: LOX IMVI 40.2 µM | IGROV-1 > 100 µM | ACHN 74.6 µM | Hs-578T 43.8 µM | SNB-19 > 100 µM | MDA-MB-231 > 100 µM | HOP-92 > 100 µM | CCRF-CEM 28.4 µM | U-251 79.3 µM | HOP-62 27.4 µM | OVCAR-5 > 100 µM | NCI-H522 33.8 µM | COLO 205 > 100 µM | Malme-3M > 100 µM | T47D > 100 µM | BT-549 86.1 µM | SK-MEL-2 > 100 µM
50.7 µM: HCT-15

CCOC(=O)c1cc2c(OC(C)=O)ccc(OC(C)=O)c2s1
active: LOX IMVI 0.891 µM | HL-60 0.845 µM | NCI-H522 0.301 µM
inactive: IGROV-1 1.76 µM | ACHN 1.61 µM | Hs-578T 1.69 µM | SNB-19 7.03 µM | MDA-MB-231 2.02 µM | HOP-92 1.44 µM | CCRF-CEM 2.16 µM | U-251 2.97 µM | HOP-62 10.3 µM | OVCAR-5 6.19 µM | COLO 205 2.17 µM | Malme-3M 1.93 µM | T47D 1.48 µM | BT-549 2.13 µM | SK-MEL-2 2.62 µM
1.75 µM: HCT-15
